The conditions of series [1]: in vivo in mice, compared with Remdesivir; cited from earlier work.
For series [2] the following is noted: compared with Remdesivir; cited from earlier work.
A short description of series [3]: Placement under 40° C./75% RH (open) conditions for one week (hydrochloride). The series is classed as physicochemical.
Series [4] is described as follows: Moisture absorption on placement under RH (open) conditions for one week. The series is classed as physicochemical. The settings on record: for moisture absorption: one week. An excerpt:
• (1) The compound ATV-014 hydrobromate crystalline form I provided herein is placed under 70% RH (open) conditions for one week, the moisture absorption is 0.2%, and under 90% RH (open) conditions for one week, the moisture absorption is 18.8%. • (2) The compound ATV-014 p-toluenesulfonate crystalline form I provided herein is placed under 30% RH (open) conditions for one week, the moisture absorption is 0.4%, and under 90% RH (open) conditions for one week, the moisture absorption is 0.5%.

The next series is described as follows: DVS hygroscopicity test. The format is physicochemical.
Series [5] is described as follows: Solubility study in biological media (FaSSIF, FeSSIF, SGF, water) at 37° C. The series is classed as physicochemical. The following applies: for solubility at 0.5 h / solubility at 2 h / solubility at 24 h: thermodynamic from solid. As to the method:
According to the results of salt formation screening research, the solubilities of free base crystalline form I and p-toluenesulfonate crystalline form I at 0.5 hours, 2 hours, and 24 hours were measured in FaSSIF, FeSSIF, SGF, and water at 37° C.

Series [6] is described as follows: Study on the stability of influence factors (40° C./75% RH open, 60° C. sealed, 7 days; HPLC and XRPD). The format is physicochemical. The following applies: for Purity at day 7 (Peak area %) 40° C./75% RH: 40° C./75% RH (open); for Purity at day 7 (Peak area %) 40° C./75% RH / Purity at day 7 (Peak area %) 60° C.: 7 days, HPLC; for Purity at day 7 (Peak area %) 60° C.: 60° C. (sealed sample bottle); for physical and chemical stability / purity and crystalline structure: 60° C. and 40° C./75% RH for 7 days; for Purity at day 0 (Peak area %): day 0, HPLC. An excerpt: X-ray powder diffraction patterns were collected by using a zero-background sample disk on a German Bruker D8 Advance X-ray diffractometer equipped with an automatic sampler. The used radiation source is Cu k α (λ=1.5418 Å), and the light tube voltage is set at 40 KV and the light tube current is set at 40 mA. The divergent slit of X-rays is 0.6 mm. A proper amount of sample was placed in the center of the zero-background sample tray under the environmental condition, the sample was lightly pressed with a clean glass slide to obtain a flat plane, and the zero-background sample rack was fixed. Diffraction analysis of the sample was performed with a scanning step size of 0.02° (2θ) in the range of 3-40° (2θ). The software used for data collection is DIFFRAC.COMMANDER, and the data is analyzed and presented using DIFFRAC.EVA.
The instrument used for liquid chromatography analysis is Agilent HPLC 1260 series,
ATV-014 free base crystalline form I, ATV-014 hydrobromate crystalline form I, and ATV-014 p-toluenesulfonate crystalline form I were taken and placed at 40° C./75% RH (open) and 60° C. (sealed sample bottle) for 7 days. High-performance liquid chromatography and X-ray powder diffraction detection were performed at 0 and 7 days, respectively.

A short description of series [7]: Bioavailability of ATV014 compared to GS-441524. An excerpt:
(§1) The compound ATV014 is a derivative of GS-441524.

Series [8] is described as follows: Activity of ATV014 compared to GS-441524.
Excerpt: as §1

The mark [9] stands for this setting: after placement under 30% RH and 90% RH (open) for one week.

The values below come from patent publication US20240366617A1, “NOVEL CRYSTALLINE FORMS OF A NUCLEOSIDE COMPOUND AND SALTS THEREOF” (priority 2021, published 2024).

Converted amounts (≈) assume the structure as drawn. Read-outs that look alike come from different tables or passages of the source.

For `N#C[C@@]1(c2ccc3c(N)ncnn23)O[C@H](CO)[C@@H](O)[C@H]1O` [GS-441524], in series [1], the antiviral effect entry is reported as “superior to that of Remdesivir”. Besides, the safety result in series [2] is recorded as “better safety”.

Consider `Cl.N#C[C@@]1(c2ccc3c(N)ncnn23)O[C@H](COC(=O)C2CCCCC2)[C@@H](O)[C@H]1O` [ATV-014 hydrochloride crystalline form], for which, in [3], the “crystalline structure and chemical purity” value is listed as “have not changed”; the “physical and chemical stability” value was “good”.

Take `Cc1ccc(S(=O)(=O)O)cc1.N#C[C@@]1(c2ccc3c(N)ncnn23)O[C@H](COC(=O)C2CCCCC2)[C@@H](O)[C@H]1O.O`: the moisture absorption in series [4] (30% RH (open)) came out at 0.4%; in [4] (90% RH (open)) it was 0.5%. Also, the “crystalline structure and chemical purity” value in [4] (setting [9]) is on record as “have not changed”. Also, the “physical and chemical stability” value in series [4] (setting [9]) and in series [6] was “good” each time. The “hygroscopicity (DVS results)” value in the series “DVS hygroscopicity test” is “slight hygroscopicity”. In addition, in the series “DVS hygroscopicity test”, the “solid form during / after the DVS test” value is recorded as “no change in the crystalline structure”. In “DVS hygroscopicity test” (90% RH), this compound yielded a hygroscopic weight gain of 0.5%. Also, the “solubility” value in [5] is “higher than 5 mg/mL”; in [5] (pH 1.24), more than 5 mg/mL. Also, the “solubility in water relative to that of free base” value in [5] turned out to be 30 times. The “pH (solution pH)” value is listed as 5.7 in series [5] (FaSSIF, pH 6.45, 0.5 h); 5.67 in series [5] (FaSSIF, pH 6.45, 2 h); 5.85 in series [5] (FaSSIF, pH 6.45, 24 h); 4.65 in series [5] (FeSSIF, pH 4.95, 0.5 h); 4.62 in series [5] (FeSSIF, pH 4.95, 2 h); 4.83 in series [5] (FeSSIF, pH 4.95, 24 h). The “pH (solution pH)” value is 0.69 in series [5] (SGF, pH 1.24, 0.5 h); 0.70 in [5] (SGF, pH 1.24, 2 h); 1.20 in series [5] (SGF, pH 1.24, 24 h); 2.05 in series [5] (water, pH 5.53, 0.5 h); 2.07 in series [5] (water, pH 5.53, 2 h); 2.43 in series [5] (water, pH 5.53, 24 h). Moreover, the “XPRD (solid form of the residue)” value in series [5] (pH 4.95), in series [5] (pH 5.53) and in series [5] (pH 6.45) was “free base” each time. Moreover, in [6], the “Purity at day 7 (Peak area %) 40° C./75% RH” value was determined as 98.71%. For the same compound, in [6], the “Purity at day 7 (Peak area %) 60° C.” value is reported as 98.62%. Also, the “purity and crystalline structure” value in series [6] was “remained unchanged”. Further, in [6], the “Purity at day 0 (Peak area %)” value stood at 98.60%.

As for `N#C[C@@]1(c2ccc3c(N)ncnn23)O[C@H](COC(=O)C2CCCCC2)[C@@H](O)[C@H]1O` [ATV014], the bioavailability result in series [7] is reported as “better”. The activity result in [8] is listed as “better”.

The compound `Br.N#C[C@@]1(c2ccc3c(N)ncnn23)O[C@H](COC(=O)C2CCCCC2)[C@@H](O)[C@H]1O` [ATV-014 hydrobromide crystalline form I] displayed a moisture absorption in [4] (70% RH (open)) of 0.2%. In addition, in [4] (90% RH (open)), the moisture absorption is reported as 18.8%. Also, in the series “DVS hygroscopicity test”, the “hygroscopicity (DVS results)” value is recorded as “has hygroscopicity” and the “solid form during / after the DVS test” value was “transforms into an amorphous glassy solid”. Also, the hygroscopic weight gain in the series “DVS hygroscopicity test” (70% RH, after equilibrating for 30 to 120 minutes) worked out at 0.2%. In “DVS hygroscopicity test” (90% RH), this compound returned a hygroscopic weight gain of 18.8%. Moreover, in [6], the “Purity at day 7 (Peak area %) 40° C./75% RH” value is listed as “Liquefaction,”, the “Purity at day 7 (Peak area %) 60° C.” value is on record as 99.57% and the “Purity at day 0 (Peak area %)” value was determined as 99.46%. For the same compound, the “state of the sample” value in series [6] (40° C./75% RH for 7 days) is “the sample liquefies”. Moreover, the “purity and crystalline form” value in series [6] (60° C. for 7 days) was “remained unchanged”.

As to `N#C[C@@]1(c2ccc3c(N)ncnn23)O[C@H](COC(=O)C2CCCCC2)[C@@H](O)[C@H]1O` [ATV-014 free base crystalline form I], the “pH (solution pH)” value in series [5] (FaSSIF, pH 6.45, 0.5 h) is 6.45; in series [5] (FaSSIF, pH 6.45, 2 h), 6.44; in series [5] (FaSSIF, pH 6.45, 24 h), 6.58; in series [5] (FeSSIF, pH 4.95, 0.5 h) it was 4.76; in series [5] (FeSSIF, pH 4.95, 2 h), 4.74; in [5] (FeSSIF, pH 4.95, 24 h) it was 4.96. For the same compound, the “pH (solution pH)” value in series [5] (SGF, pH 1.24, 0.5 h) turned out to be 0.95; in [5] (SGF, pH 1.24, 2 h) it was 0.9; in series [5] (SGF, pH 1.24, 24 h), 1.26; in series [5] (water, pH 5.53, 0.5 h) it was 7.24; in series [5] (water, pH 5.53, 2 h), 6.45; in series [5] (water, pH 5.53, 24 h), 6.5. Moreover, in [5] (SGF, 37° C., 0.5-24 h, medium not named in the sentence for the p-toluenesulfonate), the “solubility” value was 2.5 to 2.9 mg/mL. Further, the solubility at 0.5 h in series [5] (simulated gastric fluid, SGF, pH 1.24, 0.5 h, 37° C.) was 2480 µg/mL (≈ 6180 µM); in series [5] (FaSSIF, pH 6.45, 0.5 h, 37° C.), 7 µg/mL (≈ 17.4 µM); in series [5] (FeSSIF, pH 4.95, 0.5 h, 37° C.) it was 14 µg/mL (≈ 34.9 µM); in [5] (water, pH 5.53, 0.5 h, 37° C.), 5 µg/mL (≈ 12.5 µM). Moreover, the solubility at 2 h in series [5] (simulated gastric fluid, SGF, pH 1.24, 2 h, 37° C.) was 2560 µg/mL (≈ 6380 µM); in [5] (FaSSIF, pH 6.45, 2 h, 37° C.), 10 µg/mL (≈ 24.9 µM); in series [5] (FeSSIF, pH 4.95, 2 h, 37° C.) it was 19 µg/mL (≈ 47.3 µM); in [5] (water, pH 5.53, 2 h, 37° C.) it was 6 µg/mL (≈ 14.9 µM). Moreover, the solubility at 24 h in series [5] (simulated gastric fluid, SGF, pH 1.24, 24 h, 37° C.) was 2860 µg/mL (≈ 7120 µM); in [5] (FaSSIF, pH 6.45, 24 h, 37° C.) it was 21 µg/mL (≈ 52.3 µM); in series [5] (FeSSIF, pH 4.95, 24 h, 37° C.), 20 µg/mL (≈ 49.8 µM); in [5] (water, pH 5.53, 24 h, 37° C.), 5 µg/mL (≈ 12.5 µM). The “Purity at day 7 (Peak area %) 40° C./75% RH” value in series [6] stood at 98.09%. In addition, in series [6], the “Purity at day 7 (Peak area %) 60° C.” value was 98.10%. In addition, the “physical and chemical stability” value in [6] is “good”. Moreover, in series [6], the “purity and crystalline structure” value is recorded as “remained unchanged”. In addition, in [6], the “Purity at day 0 (Peak area %)” value amounted to 98.12%.
